Results on one compound are retold here after US20180235949A1 (priority 2015, published 2018).

For one experiment, the target named is T1, α2B (h) (Homo sapiens, UniProt P18089).
T1 sequence (P18089 1-450): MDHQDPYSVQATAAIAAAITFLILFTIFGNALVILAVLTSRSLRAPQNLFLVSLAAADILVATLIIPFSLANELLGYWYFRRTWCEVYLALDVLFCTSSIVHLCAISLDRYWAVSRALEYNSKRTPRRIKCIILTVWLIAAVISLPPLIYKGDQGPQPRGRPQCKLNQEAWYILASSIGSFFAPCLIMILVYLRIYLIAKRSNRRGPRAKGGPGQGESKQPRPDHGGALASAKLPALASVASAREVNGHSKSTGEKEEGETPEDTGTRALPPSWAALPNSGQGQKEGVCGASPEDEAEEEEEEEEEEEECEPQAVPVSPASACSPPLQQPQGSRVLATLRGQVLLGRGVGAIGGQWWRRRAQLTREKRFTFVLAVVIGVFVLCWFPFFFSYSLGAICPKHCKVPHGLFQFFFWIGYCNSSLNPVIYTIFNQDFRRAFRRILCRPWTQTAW
The experiment is described as follows: α2B (h) (antagonist radioligand) binding. The method, then: (§1) Representative compounds were tested to determine IC50 or EC50 in receptor functional assays. One or more of the procedures disclosed in the following references were used: Devedjian, J. C. et al., Eur. J. Pharmacol., 1994, 252, 43-49; Wang, J. B. et al., FEBS Lett., 1994, 338, 217-222; Simonin, F. et al., Mol. Pharmacol., 1994, 46, 1015-1021; Meng, F. et al., Proc. Natl. Acad. Sci. U.S.A., 1993, 90, 9954-9958; Avidor-Reiss, T. et al., FEBS Lett., 1995, 361, 70-74; Eason, M. G. et al., J. Biol. Chem., 1992, 267, 15795-15801; Law, P. Y. et al., Mol. Pharmacol., 1993, 43, 684-693. In each experiment and if applicable, the respective reference compound was tested concurrently with the test compounds. Compound binding was calculated as a % inhibition of the binding of a radioactively labeled ligand specific for each target. Cellular agonist effect was calculated as a % of control response to a known reference agonist for each target and cellular antagonist effect was calculated as a % inhibition of control reference agonist response for each target. Only the calculable IC50 and EC50 are reported below.

A further experiment addresses κ (KOP) (Rattus norvegicus, UniProt P34975). The format is binding.
Experiment [1] deals with T2, μ (MOP) (h) (Homo sapiens, UniProt P35372). It is filed as binding.
T2 sequence (P35372 whole entry): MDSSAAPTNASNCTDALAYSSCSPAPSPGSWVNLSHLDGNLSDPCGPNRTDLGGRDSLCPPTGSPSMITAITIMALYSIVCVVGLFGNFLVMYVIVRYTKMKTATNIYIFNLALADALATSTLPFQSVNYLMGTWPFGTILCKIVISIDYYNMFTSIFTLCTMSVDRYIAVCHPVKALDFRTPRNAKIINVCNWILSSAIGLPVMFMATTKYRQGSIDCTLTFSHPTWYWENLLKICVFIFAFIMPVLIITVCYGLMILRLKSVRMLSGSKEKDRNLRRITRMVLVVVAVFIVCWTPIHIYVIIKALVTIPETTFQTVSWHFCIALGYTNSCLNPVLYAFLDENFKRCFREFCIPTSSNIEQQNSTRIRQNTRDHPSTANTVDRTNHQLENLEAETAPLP
The target of experiment [2] is T2, μ (MOP) (h). The experiment is described as follows: μ (MOP) (h) (agonist effect) cellular functional assay. It is filed as cell-based. The method, then:
as §1

The structures appear in SMILES notation.

Sequence of κ (KOP) (P34975 whole entry): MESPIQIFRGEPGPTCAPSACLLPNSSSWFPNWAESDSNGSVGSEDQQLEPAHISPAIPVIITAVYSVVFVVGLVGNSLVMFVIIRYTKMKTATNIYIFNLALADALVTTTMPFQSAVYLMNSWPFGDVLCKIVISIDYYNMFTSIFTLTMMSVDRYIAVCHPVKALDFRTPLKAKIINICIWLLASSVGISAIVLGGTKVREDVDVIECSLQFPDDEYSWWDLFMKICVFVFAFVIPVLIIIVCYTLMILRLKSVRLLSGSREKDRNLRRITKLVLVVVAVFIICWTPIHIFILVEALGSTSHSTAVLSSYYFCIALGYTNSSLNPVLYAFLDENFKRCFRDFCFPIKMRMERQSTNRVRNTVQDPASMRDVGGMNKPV

On to `CCC(=O)NC1CCN(CCC(=O)OC)CC1` [Methyl 3-(4-propionamidopiperidin-1-yl)propanoate], for which the IC50 at α2B (h) is 260 µM. The same compound registered a Ki on α2B (h) of 180 µM. Also, the nH on α2B (h) (α2B (h) (antagonist radioligand)) came to 1; on κ (KOP), 0.8; at μ (MOP) (h) [1], 0.5. In addition, at μ (MOP) (h) [2], the response was half-maximal at 290 µM (EC50).

The IC50 is the concentration that gives 50% inhibition. A low value points to greater potency in that assay. Broadly, the Ki is a dissociation constant, usually derived from enzyme kinetics or from competition with a known ligand. What is called EC50 is the concentration giving half of the maximal effect. A lower EC50 goes with higher potency in that assay.
